In patent publication US20240269293A1, “PROTEIN-MACROMOLECULE CONJUGATES AND METHODS OF USE THEREOF” (BEIJING XUANYI PHARMASCIENCES CO., LTD., priority 2021, published 2024):
Like-named read-outs stand apart in the source and are kept apart here.

Legend:
[1] = tested on: Treg cells; test: pSTAT5 signaling in human LRS-derived PBMC, Treg cells (flow cytometry); format: cell-based; conditions: 45 minute incubation
Method: (§2) To determine how test compounds affect activation of primary immune cell subpopulations, concentration-response profiling of lymphocyte activation in human LRS-derived peripheral blood mononuclear cell (PBMC) samples were performed using multi-color flow cytometry.
(§3) An LRS was acquired day of draw and PBMC was extracted using a ficoll density gradient protocol. PBMC was resuspended in RPMI supplemented with 10% Fetal Bovine Serum and 1% Pen-Strep Glutamine. PBMC was incubated at 37° C. for 30 minutes prior to stimulation.
(§4) A 12-point dose curve with 5-fold dilutions was created for all compounds. Top dose was 30 ug mL. Dose curves were diluted in PBS w/0.1% BSA and added as 10× stocks. After a 45 minute incubation, samples were fixed and stained with antibodies to detect the phosphorylated form of the transcription factor STAT5 (pTATA5), and a panel of surface markers to follow pSTAT5 formation in specific T Cell and natural killer (NK) cell subpopulation.
(§5) Samples were stained with the following pre-perm panel: CD3, CD25, CD8, CD56, CD16, CD4, Dump (CD14), Dump (CD19), and CD127. Stains were incubated for 30 minutes then washed out. Streptavidin BV421 (Biolegend cat #405225) was then added and incubated for 20 minutes. Streptavidin was washed out and samples were MeOH permed and stained with the following post-perm panel: FOXP3. STAT5, Dump (CD15). Stains were incubated for 60 minutes then washed out and analyzed by flow cytometry.
(§6) Flow cytometry data were analyzed for activation of different T and NK cell subsets in concentration-response mode, reading pSTAT5 accumulation after treatment with test compounds. The median fluorescence intensity for pSTAT5 was used to create the dose curves. EC50 values for NK cells, Treg cells, CD8+ T cells were calculated from the concentration-response curves.

[2] = tested on: MC38 murine colon carcinoma; test: Subcutaneous MC38 murine colon carcinoma syngeneic model; format: in vivo, C57BL/6 mouse; conditions: 2 mg/kg IP b.i.d. × 5, 2 cycles
Method: 1×10^6 MC38 cells in 0.1 ml of PBS were implanted subcutaneously for each 7-10 weeks old syngeneic female C57BL/6 mouse in the right front flank region. Tumors were allowed to grow to palpable size, i.e., 80-100 cu mm before randomization and assigning groups (n=3) as designed. The mice were administered test compounds i.e., IL-2, rIL-2-polymer conjugates of vehicle at different dose concentrations and dose regimes as indicated in Table 12. The body weights and tumor volumes were measured three times per week.
(§1) Tumor growth inhibition following the administration of rIL-2 and rIL-2-polymer conjugates at different administration schemes were provided in FIG. 8. The tumor growth inhibition (TGI) for different treatment groups, complete response (CR) rate, and toxicity were shown in Table 13. Tumor Growth Inhibition; TGI %=(1−ΔT/ΔC)×100; Ti and Ci as the mean tumor volumes of the treatment and vehicle groups on the measurement day; T0 and C0 as the mean tumor volumes of the treatment and vehicle groups on Day 0.

[3] = tested on: CT26 murine colon carcinoma; format: in vivo
Method: 5×10^5 CT26 cells in 0.1 ml of PBS were implanted subcutaneously for each 7-10 weeks old syngeneic female BALB/c mouse in the right front flank region. Tumors were allowed to grow to palpable size, i.e., 80-110 cu mm before randomization and assigning groups (n=8) as designed. The mice were administered test compounds i.e., rIL-2, rIL-2-polymer conjugates of vehicle at different dose concentrations and dose regimes as indicated in Tables 6-8. The body weights and tumor volumes were measured three times per week. Mice that have been tumor free for more than 30 days were re-challenged in the left front flank with CT26 tumor cells (5×10^5) in 0.1 mal of PBS.
as §1, with “FIGS. 5A-7B.” for “FIG. 8.”, “rate, toxicity” for “rate,”, “rechallenge results” for “toxicity”, “Tables 9-11.” for “Table 13.”

[4] = tested on: NK cells; test: pSTAT5 signaling in human LRS-derived PBMC, NK cells (flow cytometry); format: cell-based; conditions: 45 minute incubation
Method: as §2, §3, §4, §5, §6

[5] = tested on: CD8+ T cells; test: pSTAT5 signaling in human LRS-derived PBMC, CD8+ T cells (flow cytometry); format: cell-based; conditions: for pSTAT5 EC50, CD8+ T cells: 45 minute incubation
Method: as §2, §3, §4, §5, §6

[6] = tested on: CTLL-2 cells; test: CTLL-2 cell proliferation assay; format: cell-based, mouse
Method: CTLL-2 cells (mouse cytotoxic T lymphocyte cell line) were maintained in complete RPMI 1640 medium supplemented with 10% fetal bovine serum, and 10% IL-2 culture supplement (T-STIM™ with ConA (concanavalin-A)) at 37° C. under a 5% CO2 atmosphere. The cells were cultured in suspension until they reach a cell density of 2-3×10^5 cells/ml before splitting.
For the activity assay, 3-4 days after the last split, the cells were washed three times in Dulbecco's phosphate buffered saline. The cells were then re-suspended in supplemented media without T-STIM™ at a cell density of ˜5×10^5 cells/mL, and plated in 96-well white walled clear bottom microplates at 90 μl/well. Experiments were also conducted using supplemented media (without T-STIM™) adjusted to pH 6.7-7, in order to minimize the release of conjugates during the course of incubation. Then, 10 μl of 10× concentrations of test compound, diluted in supplemented media without T-STIM™, was added. The cells were incubated at 37° C. in a 5% CO2 atmosphere for 48 hours.
The activity of both released IL-2 and unreleased conjugates were tested. The test compounds were stored under acidic condition (10 mM, sodium acetate buffer, pH 4) to stabilize conjugation. To test the activity of conjugates, the sample was diluted from the storage buffer into supplemented media ˜ one hour prior to the assay. […]

[7] = tested on: metastatic melanoma and renal cell carcinoma; conditions: high-dose regimen administered every eight hours; cited from earlier work
[8] = Table 9, 2 mg/kg IP b.i.d. × 5, 2 cycles
[9] = Table 11, 2 mg/kg IP b.i.d. × 5, 2 cycles

In the case of “Example 24: recombinant IL-2 of SEQ ID NO:1 expressed in E. coli, used as control”, the “pSTAT5 EC50, Treg cells” value ([1]; Run 1) is reported as 0.04 ng/mL, the “pSTAT5 EC50, Treg cells” value ([1]; Run 2) is reported as 0.26 ng/mL and the “pSTAT5 EC50, Treg cells” value ([1]; Run 3) is reported as 0.02 ng/mL. For the same substance, the “TGI (day 15)” value ([2]; Table 13 (FIG. 8)) was 100.75%, the “CR (day 38) (tumor free mice/mice treated)” value ([2]; Table 13) was 1/8 and the “TGI (day 19)” value ([3]; Table 9 (FIGS. 5A-5B), 2 mg/kg IP b.i.d. × 5, 2 cycles) was 61.76%. For the same substance, the “CR (tumor free mice/mice treated)” value [3, 8] was 1/8, the “Re-challenge (final tumor free mice/re-challenged mice)” value [3, 8] was 1/1 and the “TGI (day 3)” value ([3]; Table 10 (FIGS. 6A-6B), 3 mg/kg (first cycle) IP, 2 mg/kg (second cycle) IV, b.i.d. × 5, 2 cycles) was 95.71% (day 3). The “CR (tumor free mice/mice treated)” value ([3]; Table 10, 3, 2 mg/kg b.i.d. × 5, 2 cycles) was 0/8, the “TGI (day 17)” value ([3]; Table 11 (FIGS. 7A-7B), 2 mg/kg IP b.i.d. × 5, 2 cycles) was 102.41% and the “CR (tumor free mice/mice treated)” value [3, 9] was 1/8. The “Re-challenge (final tumor free mice/re-challenged mice)” value [3, 9] was 1/1, the “pSTAT5 EC50, NK cells” value ([4]; Run 1) was 9.34 ng/mL and the “pSTAT5 EC50, NK cells” value ([4]; Run 2) was 22.02 ng/mL. For the same substance, the “pSTAT5 EC50, NK cells” value ([4]; Run 3) was 4.01 ng/mL, the “CD8/Treg ratio (pSTAT5 EC50)” value ([5]; Run 1) was 928 and the “pSTAT5 EC50, CD8+ T cells” value ([5]; Run 1) was 37.10 ng/mL. The “CD8/Treg ratio (pSTAT5 EC50)” value ([5]; Run 2) was 302, the “pSTAT5 EC50, CD8+ T cells” value ([5]; Run 2) was 78.50 ng/mL and the “CD8/Treg ratio (pSTAT5 EC50)” value ([5]; Run 3) was 1874. The “pSTAT5 EC50, CD8+ T cells” value ([5]; Run 3) was 37.48 ng/mL, the EC50 ([6]; Table 3A, 48 hour incubation, CCK8) was 1.03 pM and the “EC50, CTLL-2 cell proliferation” value ([6]; Table 3B, unreleased conjugate (rIL-2 control as such)) was 0.78 ng/mL.
In the case of aldesleukin, the Durable responses [7] is listed as “up to 25%”.
